Data on one compound can be found in US12247914B2, “Virus sensing in exhaled breath by infrared spectroscopy” (Vox Biomedical LLC, priority 2017, dated 2025).

The structures appear in SMILES notation. Where two headings read alike, the source gives them in different places.

Series [1] concerns subjects. Briefly: Percent of impaired subjects by Standardized Field Sobriety Tests after smoking. Type of series: in vivo. The following applies: about an hour after smoking cessation. As for the experimental part: (§1) The high lipid solubility of cannabinoids results in their persisting in the body for long periods of time. Even after a single administration of THC, detectable levels of THC can be found in the body for weeks or longer. […] There are three accepted laboratory methods for detecting THC in individuals that have smoked or ingested marijuana: (1) urine testing, for which passive inhalation up to 22 minutes for infrequent users can be detected for 7-10 days after inhalation, with longer periods for heavy users, (2) hair testing, with THC being detectible for up to 90 days after inhalation, and (3) blood and oral fluid testing, for which THC can be detected for 2-24 hours after use in most cases, but for up to 2 weeks in some heavy users. A detailed investigation of the relationship between time after marijuana smoking and relative subject impairment provides an estimate of the relative degree of impairment (defined under Standardized Field Sobriety Tests) as a function of time after smoking various smoke concentrations of THC is shown in Table 1.

The conditions of series [2]: cited from earlier work.
A short description of series [3]: Blood THC concentration versus time after smoking. The note with it: about an hour after smoking cessation. Type of series: in vivo. How it is done: as §1
Series [4] deals with subjects. The note with it: cited from earlier work.
The conditions of series [5]: cited from earlier work. The source holds these as a separate data set.
Where [6] appears, read: dose 1.74% THC smoked, Time 1 (0-5 mins) after smoking.
[7] abbreviates: dose 1.74% THC smoked, Time 2 (50-55 mins) after smoking.
Where [8] appears, read: dose 1.74% THC smoked, Time 3 (100-105 mins) after smoking.
Where [9] appears, read: dose 2.93% THC smoked, Time 1 (0-5 mins) after smoking.
Where [10] appears, read: dose 2.93% THC smoked, Time 2 (50-55 mins) after smoking.
[11] abbreviates: dose 2.93% THC smoked, Time 3 (100-105 mins) after smoking.

In the case of `CCCCCc1cc(O)c2c(c1)OC(C)(C)[C@@H]1CCC(C)=C[C@@H]21` [THC, delta-9-tetrahydrocannabinol], the “relative degree of impairment relative to its initial value” in the series with subjects [1] is “about half”. Besides, the results for the “time THC can be detected after use, blood and oral fluid testing” value in series [2] (most cases) and in series [2] (some heavy users) were 2 to 24 h and “up to 2 weeks”, respectively. The “time THC is detectible after inhalation, hair testing” value in series [2] (hair) is “up to 90 days”. Moreover, the “time THC can be detected after inhalation, urine testing” value in series [2] (urine, infrequent users, passive inhalation up to 22 minutes) was 7 to 10 days. The “blood content of THC relative to its initial value” in series [3] is roughly 10%. Further, the “% impaired” value with subjects [4] (setting [6]) was 23%; in the series with subjects [4] (setting [7]), 23%; with subjects [4] (setting [8]) it was 15%; in the series on subjects [4] (setting [9]) it was 46%; in the series on subjects [4] (setting [10]), 41%; with subjects [4] (setting [11]) it was 28%. In addition, the “Blood THC” value was 55.5 ng/mL in series [5] (setting [6]); 6.8 ng/mL in series [5] (setting [7]); 3.7 ng/mL in series [5] (setting [8]); 70.6 ng/mL in series [5] (setting [9]); 6.2 ng/mL in series [5] (setting [10]); 3.2 ng/mL in series [5] (setting [11]).
